Measurements published in patent publication US9643980B2, “Benzoxazepin oxazolidinone compounds and methods of use” (Genentech, Inc., priority 2015, dated 2017).
Where two headings read alike, the source gives them in different places.

Columns and labels:
PI3Kα = PI3Kα (Homo sapiens, UniProt P42336); assay: PI3K binding assay (lipid kinase reaction, ADP-Glo), PI3K alpha; format: biochemical
Procedure: (§1) Reactions are carried out using the following conditions for each PI3K isoform as in Table 5.
(§2) All reactions are carried out at room temperature. […] The reaction is started by the addition of 2 μL ATP/MgCl2. The kinase reaction buffer contains 50 mM HEPES, 50 mM NaCl 3 mM MgCl2, 0.01% BSA, 1% DMSO, and enzyme and substrate concentrations as indicated in the above table. The reaction is stopped by the addition of 10 μL ADP-Glo reagent. Plates are read in a Perkin Elmer Envision system using luminescence mode. 10 point dose response curves are generated for each test compound. Ki values for each compound are determined using the Morrison Equation.

PI3Kβ = PI3Kβ (Homo sapiens, UniProt P42338); assay: PI3K binding assay (lipid kinase reaction, ADP-Glo), PI3K beta; format: biochemical; conditions: Table 2A; first value of cell (ADP-Glo, Example 901)
Procedure: as §1, §2

PI3Kδ = PI3Kδ (Homo sapiens, UniProt O00329); assay: PI3K binding assay (lipid kinase reaction, ADP-Glo), PI3K delta; format: biochemical
Procedure: as §1, §2

PI3Kγ = PI3Kγ (Homo sapiens, UniProt P48736); assay: PI3K binding assay (lipid kinase reaction, ADP-Glo), PI3K gamma; format: biochemical; conditions: Table 2A; first value of cell (ADP-Glo, Example 901)
Procedure: as §1, §2

P-PRAS40 SW48(E545K) = assay: Inhibition of P-PRAS40 in SW48 isogenic cells, PI3Kα mutant E545K; format: cell-based; conditions: for EC50: Homo sapiens
Procedure: (§3) All statistics were performed using KaleidaGraph Software (version 4.1.3). A Student t-Test was performed using unpaired data with equal variance to compare activity against mutant cells and wild-type cells. P<0.05 is considered to be significant.
(§4) The following assays are intended for determining the cellular potency and mutant selectivity of small molecule PI3Kα inhibitors. […] Mutant selectivity of PI3Kα inhibitors is determined by EC50 potency ratios in the WT vs. E545K cell lines and WT vs. H1047R cell lines.
(§5) The three cell lines (WT, E545K, and H1047R) are plated and assayed in parallel. The following day, test compounds are serially diluted in dimethyl sulfoxide (DMSO) and added to cells (final DMSO concentration 0.5%). […] Cell lysates are added to assay plates pre-coated with antibodies against phosphorylated PRAS40. Phosphorylated PRAS40 in samples are allowed to bind to the capture antibodies overnight at 4° C. The detection antibody (anti-total PRAS40, labeled with an electrochemiluminescent SULFO-TAG) is added to the bound lysate and incubated for 1 hour at room temperature. The MSD Read Buffer is added such that when a voltage is applied to the plate electrodes, the labels bound to the electrode surface emit light. The MSD Sector Instrument measures the intensity of the light, and quantitatively measures the amount of phosphor-PRAS40 in the sample. Percent inhibition of PRAS40 phosphorylation by varying concentrations of test compounds is calculated relative to untreated controls. EC50 values are calculated using the 4 parameter logistic nonlinear regression dose-response model.

P-PRAS40 SW48(H1047R) = assay: Inhibition of P-PRAS40 in SW48 isogenic cells, PI3Kα mutant H1047R; format: cell-based; conditions: for EC50: Homo sapiens
Procedure: as §3, §4, §5

P-PRAS40 SW48(parental) = assay: Inhibition of P-PRAS40 in SW48 isogenic cells, PI3Kα wild-type (parental); conditions: Homo sapiens, SW48, 24 h
[1] = tested on: KPL4 cells (PI3Kα mutant H1047R); assay: In vitro cell viability assay (Cell Titer-Glo), KPL4; conditions: KPL4, 96 h, read-out: KPL4 antiproliferative EC50 (μM)
[2] = Table 2A, first value of cell (ADP-Glo, Example 901), read-out: PI3Kα Ki
[3] = Table 2A, selectivity ratio (fold)
[4] = Table 2A, first value of cell (ADP-Glo, Example 901)
[5] = SW48, Table 3A, 24 hours of compound treatment, geometric mean, read-out: P-PRAS40 SW48(E545K) EC50
[6] = Table 3A, EC50 potency ratio, p value (Student t-Test) given
[7] = SW48, Table 3A, 24 hours of compound treatment, geometric mean, read-out: P-PRAS40 SW48(H1047R) EC50
[8] = read-out: P-PRAS40 SW48(parental) EC50 (nM)
[9] = Table 2B comparator compounds, first value of cell (ADP-Glo)
[10] = SW48, Table 3B comparator compounds, 24 hours of compound treatment, read-out: P-PRAS40 SW48(E545K) EC50
[11] = SW48, Table 3B comparator compounds, 24 hours of compound treatment, read-out: P-PRAS40 SW48(H1047R) EC50
[12] = read-out: P-PRAS40 SW48(parental) EC50 (μM)
[13] = Table 2B comparator compounds, first value of cell (ADP-Glo), read-out: PI3Kα Ki

PI3Kβ, sequence (P42338 whole entry): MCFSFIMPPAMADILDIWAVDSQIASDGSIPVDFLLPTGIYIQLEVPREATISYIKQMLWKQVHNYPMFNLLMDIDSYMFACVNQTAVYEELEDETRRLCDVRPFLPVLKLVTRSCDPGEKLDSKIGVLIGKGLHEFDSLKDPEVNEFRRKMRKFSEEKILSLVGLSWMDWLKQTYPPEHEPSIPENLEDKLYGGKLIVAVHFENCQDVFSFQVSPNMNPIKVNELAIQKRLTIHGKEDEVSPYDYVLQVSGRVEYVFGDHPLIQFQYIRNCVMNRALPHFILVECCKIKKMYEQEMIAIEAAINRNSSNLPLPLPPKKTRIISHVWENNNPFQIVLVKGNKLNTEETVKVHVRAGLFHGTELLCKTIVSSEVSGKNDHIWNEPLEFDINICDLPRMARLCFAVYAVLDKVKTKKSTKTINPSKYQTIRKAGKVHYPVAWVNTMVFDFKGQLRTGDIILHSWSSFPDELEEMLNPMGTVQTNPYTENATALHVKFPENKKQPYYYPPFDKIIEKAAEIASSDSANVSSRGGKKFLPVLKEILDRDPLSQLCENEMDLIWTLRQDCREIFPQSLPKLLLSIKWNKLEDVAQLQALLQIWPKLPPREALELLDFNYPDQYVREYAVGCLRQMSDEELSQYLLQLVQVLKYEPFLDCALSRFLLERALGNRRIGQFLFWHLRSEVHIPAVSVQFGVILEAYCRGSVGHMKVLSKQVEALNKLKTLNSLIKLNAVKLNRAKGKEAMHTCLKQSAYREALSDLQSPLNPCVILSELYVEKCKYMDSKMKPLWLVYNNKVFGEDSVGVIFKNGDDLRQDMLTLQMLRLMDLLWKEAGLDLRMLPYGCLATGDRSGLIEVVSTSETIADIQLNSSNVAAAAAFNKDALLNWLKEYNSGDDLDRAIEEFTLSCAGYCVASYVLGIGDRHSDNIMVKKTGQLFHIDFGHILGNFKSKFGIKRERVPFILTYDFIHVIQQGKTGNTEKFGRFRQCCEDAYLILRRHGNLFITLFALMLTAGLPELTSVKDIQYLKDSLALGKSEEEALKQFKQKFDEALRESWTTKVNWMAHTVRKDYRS
PI3Kβ, sequence (P27986 whole entry partner): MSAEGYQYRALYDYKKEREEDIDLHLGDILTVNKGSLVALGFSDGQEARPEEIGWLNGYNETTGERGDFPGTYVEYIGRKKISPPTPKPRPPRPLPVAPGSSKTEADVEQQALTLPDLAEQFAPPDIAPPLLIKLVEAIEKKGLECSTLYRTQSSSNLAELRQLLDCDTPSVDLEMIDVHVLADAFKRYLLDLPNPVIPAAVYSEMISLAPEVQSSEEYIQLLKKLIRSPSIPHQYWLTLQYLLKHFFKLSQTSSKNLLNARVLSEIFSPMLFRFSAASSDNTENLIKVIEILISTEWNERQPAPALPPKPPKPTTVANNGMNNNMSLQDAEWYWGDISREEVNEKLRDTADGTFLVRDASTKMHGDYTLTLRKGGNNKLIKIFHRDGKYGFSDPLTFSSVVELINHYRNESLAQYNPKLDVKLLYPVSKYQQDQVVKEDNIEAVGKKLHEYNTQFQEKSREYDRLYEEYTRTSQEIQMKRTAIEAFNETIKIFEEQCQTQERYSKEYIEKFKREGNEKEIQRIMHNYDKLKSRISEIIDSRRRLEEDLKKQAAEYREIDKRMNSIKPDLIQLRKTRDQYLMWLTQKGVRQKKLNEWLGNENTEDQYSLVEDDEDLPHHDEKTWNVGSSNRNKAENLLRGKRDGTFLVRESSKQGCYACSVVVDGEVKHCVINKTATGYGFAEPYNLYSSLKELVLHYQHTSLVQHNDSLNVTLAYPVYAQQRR
PI3Kγ, sequence (P48736 whole entry): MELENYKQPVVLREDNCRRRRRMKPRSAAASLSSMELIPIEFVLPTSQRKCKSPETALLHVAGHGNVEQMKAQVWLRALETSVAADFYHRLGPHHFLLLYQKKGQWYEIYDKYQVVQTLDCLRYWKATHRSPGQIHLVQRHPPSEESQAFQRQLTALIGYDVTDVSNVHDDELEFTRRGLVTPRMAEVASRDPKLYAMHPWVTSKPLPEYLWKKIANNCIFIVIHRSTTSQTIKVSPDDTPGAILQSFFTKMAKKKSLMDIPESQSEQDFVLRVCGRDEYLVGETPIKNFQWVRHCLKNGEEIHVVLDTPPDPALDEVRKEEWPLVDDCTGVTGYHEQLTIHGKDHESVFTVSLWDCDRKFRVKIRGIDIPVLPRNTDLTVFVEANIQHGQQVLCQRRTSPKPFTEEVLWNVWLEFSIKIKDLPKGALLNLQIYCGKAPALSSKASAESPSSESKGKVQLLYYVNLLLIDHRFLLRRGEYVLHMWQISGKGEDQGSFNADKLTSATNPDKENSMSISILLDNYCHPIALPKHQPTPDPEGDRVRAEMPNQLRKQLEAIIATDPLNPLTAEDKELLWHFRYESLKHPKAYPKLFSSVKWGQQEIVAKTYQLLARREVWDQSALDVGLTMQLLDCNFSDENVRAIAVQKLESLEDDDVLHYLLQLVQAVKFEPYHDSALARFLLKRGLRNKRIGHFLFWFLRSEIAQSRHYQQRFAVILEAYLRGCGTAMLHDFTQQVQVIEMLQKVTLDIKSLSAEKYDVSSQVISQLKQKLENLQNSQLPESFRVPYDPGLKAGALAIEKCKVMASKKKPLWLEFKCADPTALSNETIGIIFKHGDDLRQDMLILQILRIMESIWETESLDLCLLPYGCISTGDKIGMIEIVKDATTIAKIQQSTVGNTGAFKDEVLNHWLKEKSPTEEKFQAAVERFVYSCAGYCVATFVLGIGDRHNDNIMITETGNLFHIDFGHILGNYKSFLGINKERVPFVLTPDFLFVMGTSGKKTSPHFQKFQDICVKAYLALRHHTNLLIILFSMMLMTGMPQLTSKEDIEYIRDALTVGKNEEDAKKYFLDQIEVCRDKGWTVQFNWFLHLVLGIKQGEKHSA
PI3Kδ, sequence (O00329 whole entry): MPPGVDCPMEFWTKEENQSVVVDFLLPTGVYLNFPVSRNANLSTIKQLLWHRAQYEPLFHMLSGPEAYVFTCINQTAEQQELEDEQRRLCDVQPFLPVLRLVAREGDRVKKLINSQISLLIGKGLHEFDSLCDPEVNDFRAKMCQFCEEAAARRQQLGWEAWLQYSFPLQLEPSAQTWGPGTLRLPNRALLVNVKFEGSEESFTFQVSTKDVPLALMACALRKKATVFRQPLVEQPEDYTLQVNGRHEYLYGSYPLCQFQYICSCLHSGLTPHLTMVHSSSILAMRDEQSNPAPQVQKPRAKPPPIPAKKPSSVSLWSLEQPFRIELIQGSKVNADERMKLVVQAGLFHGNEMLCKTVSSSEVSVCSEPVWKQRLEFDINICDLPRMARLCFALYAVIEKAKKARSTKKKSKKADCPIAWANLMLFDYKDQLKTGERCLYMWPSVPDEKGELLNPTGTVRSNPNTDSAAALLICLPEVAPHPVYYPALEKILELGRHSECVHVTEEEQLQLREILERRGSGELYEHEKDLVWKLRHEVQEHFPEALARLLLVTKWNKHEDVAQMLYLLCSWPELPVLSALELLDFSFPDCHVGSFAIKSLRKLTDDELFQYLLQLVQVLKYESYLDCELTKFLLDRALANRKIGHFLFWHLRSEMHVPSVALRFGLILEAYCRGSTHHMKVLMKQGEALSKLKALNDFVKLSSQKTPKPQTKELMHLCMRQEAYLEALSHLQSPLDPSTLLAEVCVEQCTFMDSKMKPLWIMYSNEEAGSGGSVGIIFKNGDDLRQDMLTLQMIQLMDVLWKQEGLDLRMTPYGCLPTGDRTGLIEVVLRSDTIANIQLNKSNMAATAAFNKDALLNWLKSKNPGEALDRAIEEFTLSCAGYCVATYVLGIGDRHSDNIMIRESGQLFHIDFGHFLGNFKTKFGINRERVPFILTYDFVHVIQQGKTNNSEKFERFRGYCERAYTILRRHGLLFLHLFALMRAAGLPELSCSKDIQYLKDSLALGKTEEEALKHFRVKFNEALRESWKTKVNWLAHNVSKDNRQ
PI3Kδ, sequence (P27986 whole entry partner): as the sequence (P27986 whole entry partner) above
PI3Kα, sequence (P42336 whole entry, canonical isoform): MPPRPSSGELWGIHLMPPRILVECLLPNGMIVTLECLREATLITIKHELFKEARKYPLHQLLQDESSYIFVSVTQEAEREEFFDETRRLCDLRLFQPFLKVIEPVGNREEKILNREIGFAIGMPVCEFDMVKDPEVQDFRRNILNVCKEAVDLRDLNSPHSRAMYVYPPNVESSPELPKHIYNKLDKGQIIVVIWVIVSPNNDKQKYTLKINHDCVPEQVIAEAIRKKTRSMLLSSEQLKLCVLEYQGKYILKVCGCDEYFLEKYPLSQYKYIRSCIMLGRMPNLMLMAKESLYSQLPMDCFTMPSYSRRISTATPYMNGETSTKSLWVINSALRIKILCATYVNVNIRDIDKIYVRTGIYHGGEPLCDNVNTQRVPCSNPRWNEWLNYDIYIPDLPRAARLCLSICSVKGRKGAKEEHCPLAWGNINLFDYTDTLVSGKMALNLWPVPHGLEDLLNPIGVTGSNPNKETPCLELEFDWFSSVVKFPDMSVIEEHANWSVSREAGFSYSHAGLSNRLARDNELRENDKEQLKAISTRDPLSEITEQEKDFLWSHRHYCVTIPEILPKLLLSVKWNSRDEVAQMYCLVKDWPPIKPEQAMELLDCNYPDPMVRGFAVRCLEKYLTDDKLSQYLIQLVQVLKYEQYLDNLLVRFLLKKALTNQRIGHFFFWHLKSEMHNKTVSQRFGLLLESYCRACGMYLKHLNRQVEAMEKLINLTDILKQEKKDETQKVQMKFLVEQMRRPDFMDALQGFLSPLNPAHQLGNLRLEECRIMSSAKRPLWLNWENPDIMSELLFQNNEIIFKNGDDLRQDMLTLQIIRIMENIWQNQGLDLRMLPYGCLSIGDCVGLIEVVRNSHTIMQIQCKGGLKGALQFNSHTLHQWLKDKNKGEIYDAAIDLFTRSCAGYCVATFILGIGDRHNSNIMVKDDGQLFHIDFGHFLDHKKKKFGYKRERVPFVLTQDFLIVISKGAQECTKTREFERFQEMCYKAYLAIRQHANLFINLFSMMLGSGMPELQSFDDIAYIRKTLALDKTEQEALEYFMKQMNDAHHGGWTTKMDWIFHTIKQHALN
PI3Kα, sequence (P27986 whole entry partner, canonical isoform): as the sequence (P27986 whole entry partner) above

Ki (PI3Kα; [2])	Ki (PI3Kβ)	Ki (PI3Kδ; [4])	Ki (PI3Kγ)	EC50 (P-PRAS40 SW48(E545K); [5])	EC50 (P-PRAS40 SW48(H1047R); [7])	Ki (PI3Kδ; [9])	EC50 (P-PRAS40 SW48(E545K); [10])	EC50 (P-PRAS40 SW48(H1047R); [11])	Structure (SMILES)	Selectivity for PI3Kα vs. PI3K-β (PI3Kα; [3])	Selectivity for PI3Kα vs. PI3Kγ (PI3Kα; [3])	Selectivity for PI3Kα vs. PI3Kδ (PI3Kα; [3])	Fold Selectivity for SW48(E545K) vs. SW48(parental) (P-PRAS40 SW48(E545K); [6])	Fold Selectivity for SW48(H1047R) vs. SW48(parental) (P-PRAS40 SW48(H1047R); [6])	EC50 (P-PRAS40 SW48(parental); [8])	EC50 (P-PRAS40 SW48(parental); [12])	also measured
0.043 nM	60.8 nM	1.97 nM	23.9 nM	0.0029 µM	0.0026 µM	–	–	–	NC(=O)[C@@H]1CCCN1c1ccc2c(c1)OCCn1cc(N3C(=O)OC[C@H]3CF)nc1-2 [Compound 108, (S)-1-(2-((S)-4-(Fluoromethyl)-2-oxooxazolidin-3-yl)-5,6-dihydrobenzo[f]imidazo[1,2-d][1,4]oxazepin-9-yl)pyrrolidine-2-carboxamide]	1421	557	46	2.1 (p < 0.001))	2.2 (p < 0.001)	6.2 nM	–	–
–	–	–	–	–	–	24.1 nM	0.169 µM	0.184 µM	C[C@H](Oc1ccc2c(c1)OCCn1cc(-c3ncnn3C)nc1-2)C(N)=O [Compound 540, reference compound]	–	–	–	–	–	–	381 nM	–
0.993 nM	376 nM	30.3 nM	126 nM	0.0332 µM	0.028 µM	–	–	–	C[C@H](Oc1ccc2c(c1)OCCn1cc(N3C(=O)OC[C@H]3CF)nc1-2)C(N)=O [Compound 109, (S)-2-((2-((S)-4-(Fluoromethyl)-2-oxooxazolidin-3-yl)-5,6-dihydrobenzo[f]imidazo[1,2-d][1,4]oxazepin-9-yl)oxy)propanamide]	–	–	–	2.2 (p = 0.002)	2.6 (p < 0.001)	74 nM	–	Selectivity for PI3Kα vs. PI3K-β (PI3Kα): 379; Selectivity for PI3Kα vs. PI3Kγ (PI3Kα): 127; Selectivity for PI3Kα vs. PI3Kδ (PI3Kα): 31
–	–	–	–	–	–	7.72 nM	–	–	CC(C)n1ncnc1-c1cn2c(n1)-c1ccc(O[C@@H](C)C(N)=O)cc1OCC2 [Compound 436, reference compound]	–	–	–	–	–	–	–	EC50 [1]: 0.05 µM
–	–	–	–	–	–	11.3 nM	0.0159 µM	0.018 µM	CCn1ncnc1-c1cn2c(n1)-c1ccc(O[C@@H](C)C(N)=O)cc1OCC2 [Compound 544, reference compound]	–	–	–	–	–	–	47.7 nM	–
–	–	–	–	–	–	0.422 nM	0.0008 µM	0.0009 µM	NC(=O)[C@@H]1CCCN1c1ccc2c(c1)OCCn1cc(-c3ncnn3CC(F)(F)F)nc1-2 [Compound 469, reference compound]	–	–	–	–	–	–	1 nM	Ki (PI3Kα; [13]): 0.025 nM; Selectivity for PI3Kα vs. PI3Kδ (PI3Kα; Table 2B comparator compounds, selectivity ratio (fold)): 17; Fold Selectivity for SW48(E545K) vs. SW48(parental) (P-PRAS40 SW48(E545K); Table 3B, EC50 potency ratio): 1.8 (p = 0.04); Fold Selectivity for SW48(H1047R) vs. SW48(parental) (P-PRAS40 SW48(H1047R); Table 3B, EC50 potency ratio): 1.6 (p = 0.11)
–	–	–	–	–	–	0.354 nM	–	–	CC(C)n1ncnc1-c1cn2c(n1)-c1ccc(N3CCC[C@H]3C(N)=O)cc1OCC2 [Compound 375, reference compound]	–	–	–	–	–	–	1.6 nM	Ki (PI3Kα): 0.016 nM; Fold Selectivity for SW48(E545K) vs. SW48(parental) (P-PRAS40 SW48(E545K)): 1.4 (p = 0.23); EC50 (P-PRAS40 SW48(E545K); SW48, 24 h, read-out: P-PRAS40 SW48(E545K) EC50 (μM)): 0.0011 µM; Fold Selectivity for SW48(H1047R) vs. SW48(parental) (P-PRAS40 SW48(H1047R)): 1.5 (p = 0.20); EC50 (P-PRAS40 SW48(H1047R); SW48, 24 h, read-out: P-PRAS40 SW48(H1047R) EC50 (μM)): 0.001 µM

Continued, compound first:

Structure (SMILES)	Ki (PI3Kα; [2])	Ki (PI3Kβ)	Ki (PI3Kδ; [4])	Ki (PI3Kγ)	EC50 (P-PRAS40 SW48(E545K); [5])	EC50 (P-PRAS40 SW48(H1047R); [7])	Ki (PI3Kδ; [9])	EC50 (P-PRAS40 SW48(E545K); [10])	EC50 (P-PRAS40 SW48(H1047R); [11])	Selectivity for PI3Kα vs. PI3K-β (PI3Kα; [3])	Selectivity for PI3Kα vs. PI3Kγ (PI3Kα; [3])	Selectivity for PI3Kα vs. PI3Kδ (PI3Kα; [3])	Fold Selectivity for SW48(E545K) vs. SW48(parental) (P-PRAS40 SW48(E545K); [6])	Fold Selectivity for SW48(H1047R) vs. SW48(parental) (P-PRAS40 SW48(H1047R); [6])	EC50 (P-PRAS40 SW48(parental); [8])	EC50 (P-PRAS40 SW48(parental); [12])	also measured
C[C@H](Oc1ccc2c(c1)OCCn1cc(N3C(=O)OC[C@H]3C(F)F)nc1-2)C(N)=O [Compound 107, (S)-2-((2-((S)-4-(Difluoromethyl)-2-oxooxazolidin-3-yl)-5,6-dihydrobenzo[f]imidazo[1,2-d][1,4]oxazepin-9-yl)oxy)propanamide]	0.853 nM	341 nM	44.2 nM	136 nM	0.0234 µM	0.0256 µM	–	–	–	400	159	52	3.0 (p < 0.001)	2.7 (p < 0.001)	69.2 nM	–	–
CC(C)[C@@H]1COC(=O)N1c1cn2c(n1)-c1ccc(O[C@@H](C)C(N)=O)cc1OCC2 [Compound 101, (S)-2-((2-((R)-4-isopropyl-2-oxooxazolidin-3-yl)-5,6-dihydrobenzo[f]imidazo[1,2-d][1,4]oxazepin-9-yl)oxy)propanamide]	0.803 nM	392 nM	18.7 nM	72.8 nM	0.0328 µM	0.0322 µM	–	–	–	488	91	23	2.1 (p < 0.001)	2.1 (p < 0.001)	68.2 nM	–	–
CC[C@@H]1COC(=O)N1c1cn2c(n1)-c1ccc(O[C@@H](C)C(N)=O)cc1OCC2 [Compound 104, (S)-2-((2-((R)-4-Ethyl-2-oxooxazolidin-3-yl)-5,6-dihydrobenzo[f]imidazo[1,2-d][1,4]oxazepin-9-yl)oxy)propanamide]	2.69 nM	847 nM	50 nM	287 nM	0.115 µM	0.109 µM	–	–	–	–	–	–	2.5 (p = 0.003)	2.6 (p = 0.003)	335 nM	–	Selectivity for PI3Kα vs. PI3K-β (PI3Kα): 315; Selectivity for PI3Kα vs. PI3Kγ (PI3Kα): 107; Selectivity for PI3Kα vs. PI3Kδ (PI3Kα): 19
CC(C)(O)Cn1cc(-c2ccc3c(c2)OCCc2sc(N4C(=O)OCC4(C)C)nc2-3)cn1 [356 (U.S. Pat. No. 8,263,633), reference compound]	–	–	–	–	–	–	0.92 nM	0.0768 µM	0.0795 µM	–	–	–	–	–	–	310 nM	Selectivity for PI3Kα vs. PI3Kδ (PI3Kα): 1; Ki (PI3Kα; [13]): 0.967 nM; Fold Selectivity for SW48(E545K) vs. SW48(parental) (P-PRAS40 SW48(E545K); Table 3B, EC50 potency ratio): 4.0 (p < 0.001); Fold Selectivity for SW48(H1047R) vs. SW48(parental) (P-PRAS40 SW48(H1047R); Table 3B, EC50 potency ratio): 3.9 (p < 0.001)
C[C@H](Oc1ccc2c(c1)OCCn1cc(-c3ncnn3CC(F)(F)F)nc1-2)C(N)=O [Compound 486, reference compound]	–	–	–	–	–	–	2.5 nM	0.0055 µM	0.0059 µM	–	–	–	–	–	–	6.2 nM	Ki (PI3Kα; [13]): 0.186 nM; Fold Selectivity for SW48(E545K) vs. SW48(parental) (P-PRAS40 SW48(E545K); Table 3B, EC50 potency ratio): 1.1 (p = 0.44); Fold Selectivity for SW48(H1047R) vs. SW48(parental) (P-PRAS40 SW48(H1047R); Table 3B, EC50 potency ratio): 1.0 (p = 0.74)
NC(=O)[C@@H]1CCCN1c1ccc2c(c1)OCCn1cc(N3C(=O)OC[C@H]3C(F)F)nc1-2 [Compound 106, (S)-1-(2-((S)-4-(Difluoromethyl)-2-oxooxazolidin-3-yl)-5,6-dihydrobenzo[f]imidazo[1,2-d][1,4]oxazepin-9-yl)pyrrolidine-2-carboxamide]	0.053 nM	53.8 nM	1.82 nM	20.4 nM	0.0027 µM	0.0029 µM	–	–	–	1008	384	34	2.1 (p < 0.001)	1.9 (p < 0.001)	5.5 nM	–	–
